In patent publication US20230293630A1, “Coronavirus T Cell Epitopes and Uses Thereof” (priority 2020, published 2023):
Read-outs that look alike come from different tables or passages of the source.

Tested on: SARS-CoV-2-specific CD4+ T cells (OX40+CD137+) in PBMC
Assay type: cell-based, human
[1] = CD4+ T cell epitopes identified by AIM assay, share of donors responding
[2] = CD4+ T cell epitopes identified by AIM assay, sum of response per responding donor
[3] = CD4+ T cell epitopes identified by AIM assay, total response
[4] = CD4+ T cell epitopes identified by AIM assay, percent of tested donors responding
[5] = CD4+ T cell epitopes identified by AIM assay, total response summed over donors

Sequence	Frequency of response (%) [1] [%]	Magnitude by # of responding donors [2]	Sum of response [3]	Frequency of response (%)	Magnitude by # of responding donors	Sum of response	Frequency of response (%) [4] [%]	Sum of response [5]
DAALALLLLDRLNQL [SEQ ID NO 246]	21	488	1463	–	–	–	–	–
IATNGPLKVGGSCVL	8	112	112	–	–	–	–	–
LPNDDTLRVEAFEYY	9	162	162	–	–	–	–	–
VPGLPGTILRTTNGD	9	439	439	–	–	–	–	–
SVLHSTQDLFLPFFS	15	305	609	–	–	–	–	–
MWLSYFIASFRLFAR	25	343	1030	–	–	–	–	–
TDEMIAQYTSALLAG	9	745	745	–	–	–	–	–
AIAMACLVGLMWLSY	8	151	151	–	–	–	–	–
SSANNCTFEYVSQPF	–	–	–	27	1426	4279	–	–
NPVLPFNDGVYFAST	9	413	413	–	–	–	–	–
HTTDPSFLGRYMSAL	18	2461	4921	–	–	–	–	–
KKRWQLALSKGVHFV [SEQ ID NO 250]	–	144	–	–	–	–	18	287
RVAGDSGFAAYSRYR	15	139	278	–	–	–	–	–
SELVIGAVILRGHLR	–	–	–	33	141	563	–	–
TRSMWSFNPETNILL	17	205	410	–	–	–	–	–
TNCYDYCIPYNSVTS	7	402	402	–	–	–	–	–
AVTANVNALLSTDGN	7	201	201	–	–	–	–	–
VNLTTRTQLPPAYTN	8	170	170	–	–	–	–	–
QKKQQTVTLLPAADL	7	712	712	–	–	–	–	–
QELGKYEQYIKWPWY	8	768	768	–	–	–	–	–

Sequence	Frequency of response (%) [1] [%]	Magnitude by # of responding donors [2]	Sum of response [3]	Frequency of response (%)	Magnitude by # of responding donors	Sum of response	Frequency of response (%) [4] [%]	Sum of response [5]
QFAPSASAFFGMSRI	17	191	381	–	–	–	–	–
KNTQEVFAQVKQIYK	8	125	125	–	–	–	–	–
GKQGNFKNLREFVFK	9	129	129	–	–	–	–	–
CTFEYVSQPFLMDLE	–	619	–	–	–	–	64	4332
SFLGRYMSALNHTKK	9	219	219	–	–	–	–	–
MAAYVDNSSLTIKKP	7	185	185	–	–	–	–	–
QFAYANRNRFLYIIK	20	326	978	–	–	–	–	–
VVIKVCEFQFCNDPF	9	2088	2088	–	–	–	–	–
LKPFERDISTEIYQA	17	594	1188	–	–	–	–	–
NLVRDLPQGFSALEP	27	607	1822	–	–	–	–	–
FNCYFPLQSYGFQPT	8	130	130	–	–	–	–	–
EKSNIIRGWIFGTTL	9	299	299	–	–	–	–	–
VLAAVYRINWITGGI	42	504	2519	–	–	–	–	–
YMSALNHTKKWKYPQ	9	109	109	–	–	–	–	–
EGALNTPKDHIGTRN	14	185	369	–	–	–	–	–
FVSLAIDAYPLTKHP	14	115	230	–	–	–	–	–
IAGHHLGRCDIKDLP	25	522	1565	–	–	–	–	–
VTQNVLYENQKLIAN	14	353	705	–	–	–	–	–
SVLYNSASFSTFKCY	8	892	892	–	–	–	–	–
SFIEDLLFNKVTLAD	–	406	–	–	–	–	17	812

Sequence	Frequency of response (%) [1] [%]	Magnitude by # of responding donors [2]	Sum of response [3]	Frequency of response (%)	Magnitude by # of responding donors	Sum of response	Frequency of response (%) [4] [%]	Sum of response [5]
LMDLEGKQGNFKNLR	36	347	1386	–	–	–	–	–
FHQECSLQSCTQHQP	18	413	826	–	–	–	–	–
QPYRVVVLSFELLHA	7	183	183	–	–	–	–	–
AAEASKKPRQKRTAT	23	179	537	–	–	–	–	–
GYKKPASRELKVTFF	15	246	491	–	–	–	–	–
DDQIGYYRRATRRIR [SEQ ID NO 245]	23	268	803	–	–	–	–	–
ASAFFGMSRIGMEVT	8	337	337	–	–	–	–	–
CEFQFCNDPFLGVYY	–	359	–	–	–	–	27	1077
SFLAHIQWMVMFTPL	8	554	554	–	–	–	–	–
LPQGFSALEPLVDLP	18	418	836	–	–	–	–	–
IQYIDIGNYTVSCLP	9	1805	1805	–	–	–	–	–
QEPKLGSLVVRCSFY	9	124	124	–	–	–	–	–
KIITLKKRWQLALSK	9	120	120	–	–	–	–	–
FTGYRVTKNSKVQIG	8	116	116	–	–	–	–	–
VWHVNNATNKATYKP	8	158	158	–	–	–	–	–
RRGPEQTQGNFGDQE	8	518	518	–	–	–	–	–
GSLVVRCSFYEDFLE	27	231	694	–	–	–	–	–
IDAYPLTKHPNQEYA	14	115	229	–	–	–	–	–
